Test results published in paper PMC4827351 (Chemical Science, 2015).

How the values were obtained:
[1] = test system: Salmonella enterica serovar Typhimurium; test: SEM analysis of bacterial agglutination; assay type: cell-based; settings: 3 µM proHD6 treated with trypsin before incubation (trypsin inactivated with APMSF), 30 min, 50 mM Tris-maleate pH 6.4
Experimental: Bacteria were grown aerobically at 37 °C overnight in LB media. The next morning the strains were subcultured and grown to mid-logarithmic phase in LB media. An aliquot of the bacteria (0.5–2 × 10^7 CFU mL^–1) was removed, sedimented by centrifugation (7000g × 2 min, 4 °C), washed twice with 50 mM Tris-maleate buffer, pH 6.4, and then resuspended in 0.5 mL of the 50 mM Tris-maleate buffer. The bacterial suspension was incubated at room temperature for 30 min with buffer control, 0.4 μM APMSF-inactivated trypsin, 3 μM proHD6, 3 μM trypsin-cleaved proHD6, or 3 μM HD6. Trypsin-cleaved proHD6 was prepared by incubating 30 μM proHD6 with 4 μM trypsin (Affimetrix, Santa Clara, CA) for 1 h at room temperature in 50 mM Tris-maleate buffer, pH 6.4. At the end of incubation, the trypsin was inactivated by addition of APMSF (p-amidinophenylmethylsulfonylfluoride HCl, Millipore, 25 μg mL^–1), and the mixture was added to the bacterial suspension. The APMSF-inactivated trypsin was similarly prepared, except that proHD6 was omitted from the preincubation. After a 30 min incubation, the treated bacterial suspensions were sedimented by centrifugation (7000g × 5 min, 4 °C), and the buffer supernatant was carefully removed. […]

[2] = test system: L. monocytogenes ATCC19115; test: SEM analysis of bacterial agglutination; assay type: cell-based, Listeria monocytogenes; settings: 3 µM proHD6 treated with trypsin before incubation (trypsin inactivated with APMSF), 30 min, 50 mM Tris-maleate pH 6.4
Experimental: Fig. 3 TEM analysis of HD6 self-assembly and SEM analysis of bacterial agglutination. Top row: transmission electron micrographs of 10 mM sodium phosphate pH 7.4 (control), 0.4 μM trypsin (control), 20 μM proHD6 in the absence and presence of 0.4 μM trypsin, and 20 μM HD6. All the samples were incubated at room temperature for 1 h. Scale bar = 100 nm. TEM images obtained using 10 mM Tris-maleate pH 6.4 are presented in Fig. S7. ^† Middle row: scanning electron micrographs of E. coli ATCC 25922 treated with 50 mM Tris-maleate pH 6.4 (control), 0.4 μM APMSF-inactivated trypsin (control), 3 μM proHD6, 3 μM trypsin-cleaved proHD6, or 3 μM HD6. Trypsin-cleaved proHD6 was prepared prior to incubation with the bacteria and the residual enzymatic activity was inhibited by APMSF (Experimental section). Following a 30 min incubation, the bacterial suspensions were centrifuged, fixed, and analyzed by SEM. Scale bar = 20 μm. Bottom row: SEM of L. monocytogenes ATCC19115 treated under the same conditions as in the middle row. Scale bar = 20 μm.
Bacteria were grown aerobically at 37 °C overnight in LB media. The next morning the strains were subcultured and grown to mid-logarithmic phase in LB media. […]

[3] = test system: L. monocytogenes ATCC 19115 invasion of human T84 colon epithelial cells; test: Listeria invasion assay; assay type: cell-based, Listeria monocytogenes; settings: proHD6 ≤10 µM, no trypsin, bacteria pre-incubated with peptide 30 min at room temperature, n = 3
Experimental: Fig. 5 Listeria invasion assays for native and cleaved proHD6. Invasion of human T84 colon epithelial cells by L. monocytogenes ATCC 19115 pre-treated with proHD6 in the absence and presence of 0.4 μM trypsin or HD6 (control). The bacteria (2 × 10^6 CFU mL^–1) were incubated with the indicated peptides for 30 min prior to the infection of the T84 cells (mean ± SDM, n = 3).
Concentrated (20×, 10 μL) solutions of HD6 and proHD6 were prepared in sterile Milli-Q water (0, 50, 100, and 200 μM). For conditions that required trypsin, a 1 mg mL^–1 stock solution of TPCK-treated trypsin (Worthington) in sterile Milli-Q water was added to the 20× proHD6 solutions to yield a final trypsin concentration of 0.01 mg mL^–1. A 190 μL aliquot of the diluted bacterial culture was added to each […] peptide solution and the resulting mixtures were incubated at room temperature for 30 min. The invasion assays were then performed by following a literature protocol.[15],[50] All invasion assays were conducted with at least two independently prepared and purified samples of each peptide and in three independent trials and the resulting averages with standard deviations are reported.

Sequence: EPLQAEDDPLQAKAYEADAQEQRGANDQDFAVSFAEDASSSLRALGSTRAFTCHCRRSCYSTEYSYGTCTVMGINHRFCCL (disulfide (positions not given here)) [proHD6, 81-residue propeptide of human α-defensin 6, recombinant, from His6-SUMO-proHD6]
- bacterial agglutination (SEM), trypsin-cleaved [1]: did not agglutinate S. Typhimurium unless it was treated with trypsin
- bacterial agglutination (SEM), trypsin-cleaved [2]: same trypsin-dependent activity
- L. monocytogenes invasion into human intestinal epithelial cells [3]: did not impair
